Results from ChEMBL document CHEMBL6178021, “Optimization of Tambjamines Active against Multiple Stages of Malaria Parasites” (J Med Chem, 2025).
Converted amounts (≈) assume the structure as drawn.

Legend:
Plasmodium falciparum [1] = assay: microbe, parasite or virus in culture; settings: D6, 72 h
Description: Antiplasmodial activity against asexual blood-stage Plasmodium falciparum D6 using 2% haematocrit and 0.2% parasitemia assessed as reduction in fluorescence measured after 72 hrs by Malaria SYBR Green I-based Fluorescence (MSF) assay

Plasmodium yoelii [2] = assay: Antimalarial activity against erythrocytic Plasmodium yoelii MRA-428 infected in CF1 mouse assessed as reduction in parasitemia at 80 mg/kg, po once daily for 4 days measured on day 5; format: functional; design: scale not given: the % may be the effect or the level left; settings: time 4 day
in vitro [3] = settings: human, liver microsomes
Plasmodium yoelii [4] = assay: Antimalarial activity against erythrocytic Plasmodium yoelii MRA-428 infected in CF1 mouse assessed as reduction in parasitemia at 25 mg/kg, po once daily for 4 days measured on day 5; format: functional; design: scale not given: the % may be the effect or the level left; settings: time 4 day
[5] = Solubility of the compound in potassium phosphate buffer at pH 7.4 by UV-vis spectroscopy; settings: buffer
in vitro [6] = settings: mouse, liver microsomes
MDR1 (human) [7] = assay: Apparent permeability across basolateral to apical side in MDCK transfected with human MDR1 cells incubated for 1 hr by LC-MS analysis; settings: dog, MDCK-MDR1
Plasmodium falciparum [8] = assay: Antiplasmodial activity against asexual blood-stage Plasmodium falciparum Tm90-C2B using 2% haematocrit and 0.2% parasitemia assessed as reduction in fluorescence measured after 72 hrs by Malaria SYBR Green I-based Fluorescence (MSF) assay; format: functional, organism-based
Plasmodium yoelii [9] = assay: Antimalarial activity against erythrocytic Plasmodium yoelii MRA-428 infected in CF1 mouse assessed as cured mouse at 80 mg/kg, po once daily for 4 days measured on day 28 day; format: functional, organism-based; settings: time 4.0 day
Plasmodium yoelii [10] = assay: Antimalarial activity against erythrocytic Plasmodium yoelii MRA-428 infected in CF1 mouse assessed as reduction in parasitemia at 50 mg/kg, po once daily for 4 days measured on day 5; format: functional; design: scale not given: the % may be the effect or the level left; settings: time 4 day
[11] = Metabolic stability in mouse liver microsomes assessed as half life measured up to 60 mins by LC/MS analysis; format: ADME, Microsome
[12] = Metabolic stability in human liver microsomes assessed as half life measured up to 60 mins by LC/MS analysis; format: ADME, Microsome
Plasmodium yoelii [13] = assay: Antimalarial activity against erythrocytic Plasmodium yoelii MRA-428 infected in CF1 mouse assessed as reduction in parasitemia at 10 mg/kg, po once daily for 4 days measured on day 5; format: functional; design: scale not given: the % may be the effect or the level left; settings: time 4 day
Plasmodium falciparum [14] = assay: microbe, parasite or virus in culture; settings: Dd2, 72 h
Description: Antiplasmodial activity against asexual blood-stage Plasmodium falciparum Dd2 using 2% haematocrit and 0.2% parasitemia assessed as reduction in fluorescence measured after 72 hrs by Malaria SYBR Green I-based Fluorescence (MSF) assay

Plasmodium yoelii [15] = assay: Antimalarial activity against erythrocytic Plasmodium yoelii MRA-428 infected in CF1 mouse assessed as cured mouse at 25 mg/kg, po once daily for 4 days measured on day 28 day; format: functional, organism-based; settings: time 4.0 day
HepG2 = assay: Cytotoxicity against human HepG2 cells assessed as cell viability measured after 48 hrs by MTT assay; format: toxicity, cell-based; settings: hepg2
MDR1 (human) [16] = assay: Apparent permeability across apical to basolateral side in MDCK transfected with human MDR1 cells incubated for 1 hr by LC-MS analysis; settings: dog, MDCK-MDR1
Plasmodium yoelii [17] = assay: Antimalarial activity against erythrocytic Plasmodium yoelii MRA-428 infected in CF1 mouse assessed as cured mouse at 50 mg/kg, po once daily for 4 days measured on day 28 day; format: functional, organism-based; settings: time 4.0 day
in vitro [18] = settings: human
Description: Selectivity index, ratio of IC50 for cytotoxicity against human HepG2 cells to IC50 for antiplasmodial activity against asexual blood-stage Plasmodium falciparum D6

MDR1 (human) [19] = assay: Efflux ratio, ratio of apparent permeability across apical to basolateral side over basolateral to apical side in MDCK transfected with human MDR1 cells incubated for 1 hr by LC-MS analysis; settings: dog

Compound: CCc1ccc(C2=N/C(=C\NC3CCCCCC3)C(C)=C2C)[nH]1
- IC50 (Plasmodium falciparum [1]): 2.1 nM
- Activity (Plasmodium yoelii [2]): 100%
- microsomal CLint at 1 h (in vitro [3]): 6.78 µL/min/mg
- Activity (Plasmodium yoelii [4]): 94.1%
- solubility [5]: 93.1 µM (≈ 29 µg/mL)
- microsomal CLint at 1 h (in vitro [6]): 4.36 µL/min/mg
- Papp B→A at 1 h (MDR1 (human) [7]): 0.035 ×10⁻⁶ cm/s
- IC50 (Plasmodium falciparum [8]): 1.55 nM
- Activity (Plasmodium yoelii [9]): Not active; None Of The Mouse Cured Out Of Four Tested
- Activity (Plasmodium yoelii [10]): 100%
- half-life [11]: > 60 min
- half-life [12]: > 60 min
- Activity (Plasmodium yoelii [13]): 42.8%
- IC50 (Plasmodium falciparum [14]): 1.32 nM

Compound: CCC1=C(C)/C(=C/NC2CCCCCCC2)N=C1c1ccc(C)[nH]1
- IC50 (Plasmodium falciparum [1]): 6.59 nM
- Activity (Plasmodium yoelii [2]): 100%
- Activity (Plasmodium yoelii [15]): Not active; None Of The Mouse Cured Out Of Four Tested
- microsomal CLint at 1 h (in vitro [3]): 30.5 µL/min/mg
- Activity (Plasmodium yoelii [4]): 100%
- solubility [5]: 19.9 µM (≈ 6.48 µg/mL)
- microsomal CLint at 1 h (in vitro [6]): 0.47 µL/min/mg
- IC50 (HepG2): 3.51 µM
- Papp B→A at 1 h (MDR1 (human) [7]): 0.04 ×10⁻⁶ cm/s
- IC50 (Plasmodium falciparum [8]): 4.59 nM
- Activity (Plasmodium yoelii [9]): Active; Three Mouse Cured Out Of Four
- Papp A→B at 1 h (MDR1 (human) [16]): 0.063 ×10⁻⁶ cm/s
- Activity (Plasmodium yoelii [10]): 100%
- Activity (Plasmodium yoelii [17]): Not active; None Of The Mouse Cured Out Of Four Tested
- half-life [11]: > 60 min
- half-life [12]: 45.4 min
- Activity (Plasmodium yoelii [13]): 96.5%
- IC50 (Plasmodium falciparum [14]): 3.43 nM

Compound: CCC1=C(C)/C(=C/NC2CCCCC2)N=C1c1ccc(CC)[nH]1
- IC50 (Plasmodium falciparum [1]): 33.8 nM
- Activity (Plasmodium yoelii [2]): 100%
- Activity (Plasmodium yoelii [15]): Not active; None Of The Mouse Cured Out Of Four Tested
- microsomal CLint at 1 h (in vitro [3]): 40.4 µL/min/mg
- Activity (Plasmodium yoelii [4]): 100%
- solubility [5]: 23 µM (≈ 7.16 µg/mL)
- microsomal CLint at 1 h (in vitro [6]): 13.1 µL/min/mg
- IC50 (HepG2): 6.01 µM
- Papp B→A at 1 h (MDR1 (human) [7]): 0.23 ×10⁻⁶ cm/s
- IC50 (Plasmodium falciparum [8]): 13.3 nM
- Activity (Plasmodium yoelii [9]): Active; Four Mouse Cured Out Of Four
- Papp A→B at 1 h (MDR1 (human) [16]): 0.46 ×10⁻⁶ cm/s
- Activity (Plasmodium yoelii [10]): 100%
- Activity (Plasmodium yoelii [17]): Not active; None Of The Mouse Cured Out Of Four Tested
- half-life [11]: > 60 min
- half-life [12]: 34.3 min
- Activity (Plasmodium yoelii [13]): 45.7%
- IC50 (Plasmodium falciparum [14]): 14.9 nM

Compound: CCC1=C(C)/C(=C/NC2CCCCCC2)N=C1c1ccc(C)[nH]1
- IC50 (Plasmodium falciparum [1]): 29.5 nM
- Activity (Plasmodium yoelii [2]): 100%
- Activity (Plasmodium yoelii [15]): Not active; None Of The Mouse Cured Out Of Four Tested
- microsomal CLint at 1 h (in vitro [3]): 28.3 µL/min/mg
- Activity (Plasmodium yoelii [4]): 100%
- solubility [5]: 25.7 µM (≈ 8 µg/mL)
- microsomal CLint at 1 h (in vitro [6]): 8.16 µL/min/mg
- IC50 (HepG2): 6.12 µM
- IC50 (Plasmodium falciparum [8]): 23.4 nM
- Activity (Plasmodium yoelii [9]): Active; Three Mouse Cured Out Of Four
- Activity (Plasmodium yoelii [10]): 100%
- Activity (Plasmodium yoelii [17]): Not active; None Of The Mouse Cured Out Of Four Tested
- half-life [11]: > 60 min
- half-life [12]: 48.9 min
- Activity (Plasmodium yoelii [13]): 55.3%
- IC50 (Plasmodium falciparum [14]): 18.6 nM

Compound: CCC1=C(CC)/C(=C/NC23C[C@H]4C[C@@H](C2)C[C@@H](C3)C4)N=C1c1ccc(CC)[nH]1
- IC50 (Plasmodium falciparum [1]): 0.95 nM
- Activity (Plasmodium yoelii [15]): Not active; None Of The Mouse Cured Out Of Four Tested
- microsomal CLint at 1 h (in vitro [3]): 18.5 µL/min/mg
- Activity (Plasmodium yoelii [4]): 100%
- solubility [5]: 10.3 µM (≈ 3.89 µg/mL)
- microsomal CLint at 1 h (in vitro [6]): 27.5 µL/min/mg
- IC50 (HepG2): 1.5 µM
- Papp B→A at 1 h (MDR1 (human) [7]): 22 ×10⁻⁶ cm/s
- IC50 (Plasmodium falciparum [8]): 0.984 nM
- Papp A→B at 1 h (MDR1 (human) [16]): 31 ×10⁻⁶ cm/s
- Activity (Plasmodium yoelii [10]): 100%
- Activity (Plasmodium yoelii [17]): Not active; None Of The Mouse Cured Out Of Four Tested
- selectivity ratio (in vitro [18]): 1580
- half-life [11]: 50.3 min
- half-life [12]: > 60 min
- efflux ratio at 1 h (MDR1 (human) [19]): 0.71
- Activity (Plasmodium yoelii [13]): 53%
- IC50 (Plasmodium falciparum [14]): 1.16 nM

Compound: CCc1ccc(C2=N/C(=C\NC3CCCCC3)C3=C2CCCC3)[nH]1
- IC50 (Plasmodium falciparum [1]): 3.5 nM
- Activity (Plasmodium yoelii [2]): 100%
- Activity (Plasmodium yoelii [15]): Not active; None Of The Mouse Cured Out Of Four Tested
- microsomal CLint at 1 h (in vitro [3]): 6.93 µL/min/mg
- Activity (Plasmodium yoelii [4]): 100%
- solubility [5]: 19.5 µM (≈ 6.31 µg/mL)
- microsomal CLint at 1 h (in vitro [6]): 5.71 µL/min/mg
- IC50 (HepG2): 1.19 µM
- Papp B→A at 1 h (MDR1 (human) [7]): 0.22 ×10⁻⁶ cm/s
- IC50 (Plasmodium falciparum [8]): 1.41 nM
- Activity (Plasmodium yoelii [9]): Not active; None Of The Mouse Cured Out Of Four Tested
- Papp A→B at 1 h (MDR1 (human) [16]): 0.007 ×10⁻⁶ cm/s
- Activity (Plasmodium yoelii [10]): 100%
- Activity (Plasmodium yoelii [17]): Not active; None Of The Mouse Cured Out Of Four Tested
- half-life [11]: > 60 min
- half-life [12]: > 60 min
- Activity (Plasmodium yoelii [13]): 43.1%
- IC50 (Plasmodium falciparum [14]): 1.4 nM

Compound: CCC1=C(CC)/C(=C/NC2CCCCC2)N=C1c1ccc(CC)[nH]1
- IC50 (Plasmodium falciparum [1]): 9.03 nM
- Activity (Plasmodium yoelii [2]): 100%
- Activity (Plasmodium yoelii [15]): Active; Two Mouse Cured Out Of Four
- microsomal CLint at 1 h (in vitro [3]): 17 µL/min/mg
- Activity (Plasmodium yoelii [4]): 100%
- solubility [5]: 31.3 µM (≈ 10.2 µg/mL)
- microsomal CLint at 1 h (in vitro [6]): 14.8 µL/min/mg
- IC50 (HepG2): 5.17 µM
- Papp B→A at 1 h (MDR1 (human) [7]): 0.091 ×10⁻⁶ cm/s
- IC50 (Plasmodium falciparum [8]): 7.09 nM
- Activity (Plasmodium yoelii [9]): Active; Two Mouse Cured Out Of Four
- Papp A→B at 1 h (MDR1 (human) [16]): 0.002 ×10⁻⁶ cm/s
- Activity (Plasmodium yoelii [10]): 100%
- Activity (Plasmodium yoelii [17]): Not active; None Of The Mouse Cured Out Of Four Tested
- half-life [11]: > 60 min
- half-life [12]: > 60 min
- Activity (Plasmodium yoelii [13]): 98.9%
- IC50 (Plasmodium falciparum [14]): 4.34 nM

Compound: CCC1=C(C)/C(=C/NC2CCCCCC2)N=C1c1ccc(CC)[nH]1
- IC50 (Plasmodium falciparum [1]): 8.4 nM
- Activity (Plasmodium yoelii [2]): 100%
- Activity (Plasmodium yoelii [15]): Not active; None Of The Mouse Cured Out Of Four Tested
- microsomal CLint at 1 h (in vitro [3]): 35.1 µL/min/mg
- Activity (Plasmodium yoelii [4]): 100%
- solubility [5]: 12.5 µM (≈ 4.07 µg/mL)
- microsomal CLint at 1 h (in vitro [6]): 22 µL/min/mg
- IC50 (HepG2): 4.23 µM
- Papp B→A at 1 h (MDR1 (human) [7]): 0.037 ×10⁻⁶ cm/s
- IC50 (Plasmodium falciparum [8]): 7.5 nM
- Activity (Plasmodium yoelii [9]): Active; Four Mouse Cured Out Of Four
- Papp A→B at 1 h (MDR1 (human) [16]): 0.036 ×10⁻⁶ cm/s
- Activity (Plasmodium yoelii [10]): 100%
- Activity (Plasmodium yoelii [17]): Not active; None Of The Mouse Cured Out Of Four Tested
- half-life [11]: > 60 min
- half-life [12]: 39.6 min
- Activity (Plasmodium yoelii [13]): 43.8%
- IC50 (Plasmodium falciparum [14]): 10.8 nM

Compound: CCC1=C(CC)/C(=C/NC2CCCCCCC2)N=C1c1ccc(C)[nH]1
- IC50 (Plasmodium falciparum [1]): 10.6 nM
- Activity (Plasmodium yoelii [2]): 100%
- Activity (Plasmodium yoelii [15]): Active; Four Mouse Cured Out Of Four
- microsomal CLint at 1 h (in vitro [3]): 20.6 µL/min/mg
- Activity (Plasmodium yoelii [4]): 100%
- solubility [5]: < 3.125 µM
- microsomal CLint at 1 h (in vitro [6]): 16.8 µL/min/mg
- IC50 (HepG2): 3.19 µM
- Papp B→A at 1 h (MDR1 (human) [7]): 0.066 ×10⁻⁶ cm/s
- IC50 (Plasmodium falciparum [8]): 4.95 nM
- Activity (Plasmodium yoelii [9]): Not active; None Of The Mouse Cured Out Of Four Tested
- Papp A→B at 1 h (MDR1 (human) [16]): 0.006 ×10⁻⁶ cm/s
- half-life [11]: > 60 min
- half-life [12]: > 60 min
- Activity (Plasmodium yoelii [13]): 68.5%
- IC50 (Plasmodium falciparum [14]): 5.75 nM
